Reference: ChEMBL document CHEMBL4373723 (J Med Chem, 2019)
Calls of active or inactive are those of the source. No cut-off for these calls is given here.

What was measured:
Frizzled-7 [1] = target: T1, Frizzled-7 (Homo sapiens, UniProt O75084); type: cell-based; conditions: cho
Frizzled-7 [2] = target: T1, Frizzled-7; assay: biochemical; type: cell-based, CHO; conditions: read-out: Kd
Frizzled-7 [3] = target: T1, Frizzled-7; assay: Inhibition of Frizzled-7 in HEK293 cells expressing Wnt assessed as reduction in Wnt signaling by firefly luciferase reporter gene assay; type: cell-based
[4] = Stability in cell culture medium containing 10% fetal bovine serum at 200 uM at 37 degC measured over 24 hrs by LC-MS analysis; type: ADME, cell-free, Bos taurus; conditions: cattle
[5] = Stability in presence of TCEP assessed as disulfide reduction at 20 uM measured over 40 mins at 37 degC by LC-MS analysis; type: physicochemical
Frizzled-7 [6] = target: T1, Frizzled-7; assay: Binding affinity to recombinant human Frizzled-7 (Gln33 to Leu185 residues)/human IgG1 chimeric protein expressed in CHO cells assessed as reduction in interaction of TcdB with FZD7 incubated for 1 hr by competition ELISA; type: cell-based
[7] = Binding affinity to recombinant human/mouse Frizzled-2 (Gln29 to Leu168 residues)/human IgG1 chimeric protein expressed in mouse NS0 cells assessed as reduction in interaction of TcdB with FZD7 incubated for 1 hr by competition ELISA; type: cell-based
Homo sapiens [8] = organism: Homo sapiens; assay: Modulation of Frizzled in human Caco2 cells assessed as protection against TcdB-induced cell rounding incubated for 24 hrs by phalloidin conjugated AlexaFluor488 dye based fluorescence microscopy
Homo sapiens [9] = organism: Homo sapiens; assay: Modulation of Frizzled in human Caco2 cells assessed as protection against 0.1 to 1 ng/ml TcdB-induced cell rounding incubated for 24 hrs by phalloidin conjugated AlexaFluor488 dye based fluorescence microscopy relative to control
Homo sapiens [10] = organism: Homo sapiens; assay: Modulation of Frizzled in human Caco2 cells assessed as protection against 0.25 to 0.5 ng/ml TcdB-induced cell rounding at 50 uM incubated for 24 hrs by phalloidin conjugated AlexaFluor488 dye based fluorescence microscopy relative to control
Homo sapiens [11] = organism: Homo sapiens; assay: Modulation of Frizzled in human Caco2 cells assessed as protection against 4 ng/ml TcdB-induced cell rounding at 50 uM incubated for 24 hrs by phalloidin conjugated AlexaFluor488 dye based fluorescence microscopy relative to control
Cricetulus griseus = organism: Cricetulus griseus; assay: Modulation of Frizzled in CHOK1 cells assessed as protection against 5 ng/ml TcdB-induced cell rounding at 50 uM incubated for 24 hrs by phalloidin conjugated AlexaFluor488 dye based fluorescence microscopy relative to control
Frizzled-7 [12] = target: T1, Frizzled-7; conditions: CHO
[13] = mouse, serum, 24 h, 200 µM
[14] = 40 min, 20 µM
[15] = 40 min, 20 µM; remark: listed apart in the source
Frizzled-7 [16] = target: T1, Frizzled-7; assay: Binding affinity to recombinant human Frizzled-7 (Gln33 to Leu185 residues)/human IgG1 chimeric protein expressed in CHO cells assessed as association rate constant by SPR assay; type: cell-based
Frizzled-1 = Frizzled-1 (Homo sapiens, UniProt Q9UP38); assay: Binding affinity to recombinant human Frizzled-1 (Gln73 to His253 residues)/human IgG1 chimeric protein expressed in mouse NS0 cells by SPR assay
Sequence of Frizzled-1 (Q9UP38 whole entry): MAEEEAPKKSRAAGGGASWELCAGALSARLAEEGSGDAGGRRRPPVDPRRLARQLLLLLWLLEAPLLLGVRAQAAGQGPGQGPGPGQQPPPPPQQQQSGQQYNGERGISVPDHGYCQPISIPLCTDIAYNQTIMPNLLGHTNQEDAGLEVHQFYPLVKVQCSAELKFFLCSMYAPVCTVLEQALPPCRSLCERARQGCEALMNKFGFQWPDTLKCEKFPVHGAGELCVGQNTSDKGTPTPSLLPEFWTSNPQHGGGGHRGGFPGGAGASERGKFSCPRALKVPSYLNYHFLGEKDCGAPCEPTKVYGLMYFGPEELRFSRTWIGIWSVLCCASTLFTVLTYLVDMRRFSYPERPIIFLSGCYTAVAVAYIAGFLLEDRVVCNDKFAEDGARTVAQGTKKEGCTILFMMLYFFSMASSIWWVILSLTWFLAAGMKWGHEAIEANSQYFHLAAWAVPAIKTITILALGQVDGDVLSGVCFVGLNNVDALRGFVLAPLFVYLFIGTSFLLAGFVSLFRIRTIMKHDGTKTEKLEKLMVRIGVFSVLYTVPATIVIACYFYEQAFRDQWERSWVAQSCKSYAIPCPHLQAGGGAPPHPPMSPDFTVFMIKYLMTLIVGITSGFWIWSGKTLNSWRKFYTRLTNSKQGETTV

[17] = Binding affinity to recombinant human/mouse Frizzled-2 (Gln29 to Leu168 residues)/human IgG1 chimeric protein expressed in mouse NS0 cells by SPR assay
Frizzled-5 = Frizzled-5 (Homo sapiens, UniProt Q13467); assay: Binding affinity to recombinant human Frizzled-5 (Ala27 to Pro167 residues)/human IgG1 chimeric protein expressed in mouse NS0 cells by SPR assay
Sequence of Frizzled-5 (Q13467 whole entry): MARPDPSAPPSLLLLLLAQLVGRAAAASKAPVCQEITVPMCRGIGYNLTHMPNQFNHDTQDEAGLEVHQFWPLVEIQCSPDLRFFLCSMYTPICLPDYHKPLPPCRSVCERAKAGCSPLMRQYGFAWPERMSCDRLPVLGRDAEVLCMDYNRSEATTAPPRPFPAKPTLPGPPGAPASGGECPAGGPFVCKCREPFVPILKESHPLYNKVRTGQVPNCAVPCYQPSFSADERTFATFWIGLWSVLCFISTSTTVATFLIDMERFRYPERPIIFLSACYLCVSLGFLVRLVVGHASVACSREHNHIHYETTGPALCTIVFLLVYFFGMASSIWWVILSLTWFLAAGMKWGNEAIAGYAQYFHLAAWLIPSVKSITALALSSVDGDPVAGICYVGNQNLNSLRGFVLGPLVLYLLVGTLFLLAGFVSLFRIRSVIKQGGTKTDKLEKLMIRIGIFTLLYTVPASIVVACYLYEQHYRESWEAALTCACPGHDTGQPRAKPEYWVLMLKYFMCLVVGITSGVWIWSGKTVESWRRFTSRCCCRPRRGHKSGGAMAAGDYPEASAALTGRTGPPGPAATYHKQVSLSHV

Frizzled-8 = Frizzled-8 (Homo sapiens, UniProt Q9H461); assay: Binding affinity to recombinant human Frizzled-8 (Ala25 to Pro172 residues)/human IgG1 chimeric protein expressed in CHO cells […] by SPR assay
Sequence of Frizzled-8 (Q9H461 whole entry): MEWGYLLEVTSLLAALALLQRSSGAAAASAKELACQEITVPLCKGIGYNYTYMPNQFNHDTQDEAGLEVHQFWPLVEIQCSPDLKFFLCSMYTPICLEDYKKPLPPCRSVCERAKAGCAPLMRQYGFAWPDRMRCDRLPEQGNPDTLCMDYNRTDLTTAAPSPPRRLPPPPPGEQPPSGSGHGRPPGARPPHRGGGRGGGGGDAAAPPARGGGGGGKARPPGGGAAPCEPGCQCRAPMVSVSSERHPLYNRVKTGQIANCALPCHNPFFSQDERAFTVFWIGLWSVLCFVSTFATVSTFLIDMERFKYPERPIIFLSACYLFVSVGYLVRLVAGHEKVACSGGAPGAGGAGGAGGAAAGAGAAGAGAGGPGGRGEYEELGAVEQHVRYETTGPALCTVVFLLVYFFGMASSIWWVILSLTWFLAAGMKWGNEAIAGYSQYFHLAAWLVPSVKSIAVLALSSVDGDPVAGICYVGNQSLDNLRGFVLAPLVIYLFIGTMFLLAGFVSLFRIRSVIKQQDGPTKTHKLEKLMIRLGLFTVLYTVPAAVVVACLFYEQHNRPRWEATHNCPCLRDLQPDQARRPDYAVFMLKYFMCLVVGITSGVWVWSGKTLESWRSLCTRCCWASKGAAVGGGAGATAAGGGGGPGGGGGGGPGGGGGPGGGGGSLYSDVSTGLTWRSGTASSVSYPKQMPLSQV

Frizzled-4 = target: T2, Frizzled-4 (Homo sapiens, UniProt Q9ULV1); assay: Binding affinity to recombinant human Frizzled-4 (Phe37 to Glu180 residues)/human IgG1 chimeric protein expressed in mouse NS0 cells by SPR assay
T2 sequence (Q9ULV1 whole entry): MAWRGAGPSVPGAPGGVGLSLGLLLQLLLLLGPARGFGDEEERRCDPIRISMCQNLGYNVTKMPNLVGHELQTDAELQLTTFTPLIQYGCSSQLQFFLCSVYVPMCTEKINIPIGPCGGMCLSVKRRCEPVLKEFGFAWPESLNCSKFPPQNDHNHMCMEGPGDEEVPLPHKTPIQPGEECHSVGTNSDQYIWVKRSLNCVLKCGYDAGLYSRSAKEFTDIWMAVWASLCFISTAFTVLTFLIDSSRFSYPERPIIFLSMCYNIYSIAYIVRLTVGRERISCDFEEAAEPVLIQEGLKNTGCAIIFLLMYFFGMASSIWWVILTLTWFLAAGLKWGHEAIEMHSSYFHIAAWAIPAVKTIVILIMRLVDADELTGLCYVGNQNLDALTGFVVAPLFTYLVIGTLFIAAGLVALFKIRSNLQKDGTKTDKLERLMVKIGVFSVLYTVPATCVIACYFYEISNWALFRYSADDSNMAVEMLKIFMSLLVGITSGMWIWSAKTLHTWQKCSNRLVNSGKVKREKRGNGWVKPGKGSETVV

Frizzled-9 = target: T3, Frizzled-9 (Homo sapiens, UniProt O00144); assay: Binding affinity to Frizzled-9 CRD (unknown origin)
T3 sequence (O00144 whole entry): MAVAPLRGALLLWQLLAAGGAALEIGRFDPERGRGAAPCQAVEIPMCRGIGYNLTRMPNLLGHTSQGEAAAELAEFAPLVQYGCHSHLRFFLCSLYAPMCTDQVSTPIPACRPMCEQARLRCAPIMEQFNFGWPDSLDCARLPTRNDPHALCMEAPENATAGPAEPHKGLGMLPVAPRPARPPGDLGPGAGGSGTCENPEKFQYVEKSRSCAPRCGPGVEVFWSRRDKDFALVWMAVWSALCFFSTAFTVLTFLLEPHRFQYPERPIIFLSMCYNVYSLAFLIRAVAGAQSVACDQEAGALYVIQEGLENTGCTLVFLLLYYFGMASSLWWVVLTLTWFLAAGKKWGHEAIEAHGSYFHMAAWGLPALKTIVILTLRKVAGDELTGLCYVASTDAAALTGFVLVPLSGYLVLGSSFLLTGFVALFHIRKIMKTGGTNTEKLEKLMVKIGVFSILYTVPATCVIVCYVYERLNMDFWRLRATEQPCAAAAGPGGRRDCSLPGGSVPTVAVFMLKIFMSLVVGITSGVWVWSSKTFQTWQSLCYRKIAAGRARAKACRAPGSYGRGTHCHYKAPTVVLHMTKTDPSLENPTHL

Frizzled-10 = target: T4, Frizzled-10 (Homo sapiens, UniProt Q9ULW2); assay: Binding affinity to Frizzled-10 CRD (unknown origin)
T4 sequence (Q9ULW2 whole entry): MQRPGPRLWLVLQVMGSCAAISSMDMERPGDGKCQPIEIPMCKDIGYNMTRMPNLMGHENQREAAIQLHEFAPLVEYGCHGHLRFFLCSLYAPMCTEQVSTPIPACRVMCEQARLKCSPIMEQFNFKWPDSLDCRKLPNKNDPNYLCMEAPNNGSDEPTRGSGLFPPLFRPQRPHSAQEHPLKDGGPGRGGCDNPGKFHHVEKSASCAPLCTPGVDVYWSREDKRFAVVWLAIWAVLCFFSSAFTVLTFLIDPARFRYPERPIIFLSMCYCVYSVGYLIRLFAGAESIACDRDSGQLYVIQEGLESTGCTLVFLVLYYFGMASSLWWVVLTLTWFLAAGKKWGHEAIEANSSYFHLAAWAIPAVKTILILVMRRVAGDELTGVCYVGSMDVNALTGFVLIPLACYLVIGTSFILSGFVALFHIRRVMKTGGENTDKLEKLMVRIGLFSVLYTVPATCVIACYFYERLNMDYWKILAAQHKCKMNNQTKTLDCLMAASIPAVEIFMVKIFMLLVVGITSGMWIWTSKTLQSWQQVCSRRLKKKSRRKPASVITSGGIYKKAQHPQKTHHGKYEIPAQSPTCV

Frizzled-7 [18] = target: T1, Frizzled-7; assay: Binding affinity to recombinant human Frizzled-7 (Gln33 to Leu185 residues)/human IgG1 chimeric protein expressed in CHO cells assessed as reduction in interaction of TcdB with FZD7 by SPR
Homo sapiens [19] = organism: Homo sapiens; assay: Binding affinity to recombinant human/mouse Frizzled-2 (Gln29 to Leu168 residues)/human IgG1 chimeric protein expressed in mouse NS0 cells assessed as reduction in interaction of TcdB with FZD7 by SPR

Compound	Kd (Frizzled-7 [1]) [×10⁻³ /s]	Kd (Frizzled-7 [2]) [nM]	IC50 (Frizzled-7 [3]) [nM]	Stability [5]	inhibition (Frizzled-7 [6])	inhibition [7]	Ka (Frizzled-7 [12]) [×10⁵ /M/s]	Stability [13]	Stability [14]	also measured
CC[C@H](C)[C@H](NC(=O)[C@H](Cc1cnc[nH]1)NC(=O)[C@H](CSSC[C@H](NC(=O)[C@H](Cc1c[nH]c2ccccc12)NC(=O)[C@H](CC(C)C)NC(=O)[C@H](CCC(=O)O)NC(=O)[C@H](CC(C)C)NC(=O)[C@H](CC(=O)O)NC(=O)[C@H](CC(=O)O)NC(=O)[C@@H](NC(C)=O)[C@H](C)O)C(=O)N[C@@H](Cc1cnc[nH]1)C(=O)N[C@H](C(=O)N[C@@H](CCSC)C(=O)N[C@@H](Cc1ccc(O)cc1)C(N)=O)[C@@H](C)CC)NC(=O)[C@H](Cc1c[nH]c2ccccc12)NC(=O)[C@H](CC(C)C)NC(=O)[C@H](CCC(=O)O)NC(=O)[C@H](CC(C)C)NC(=O)[C@H](CC(=O)O)NC(=O)[C@H](CC(=O)O)NC(=O)[C@@H](NC(C)=O)[C@H](C)O)C(=O)N[C@@H](CCSC)C(=O)N[C@@H](Cc1ccc(O)cc1)C(N)=O	0.64	0.039	9.2	Unstable	Dose-dependent effect	Dose-dependent effect	166	Stable	Unstable	Stability [4]: Stable; inhibition (Homo sapiens [8]): Dose-dependent effect; Activity (Homo sapiens [9]): 34 to 69%; Activity (Homo sapiens [10]): Active; Activity (Homo sapiens [11]): inactive; Activity (Cricetulus griseus): Active; Stability [15]: Unstable
CC[C@H](C)[C@H](NC(=O)[C@H](Cc1cnc[nH]1)NC(=O)[C@H](CSSCC[C@H](NC(=O)[C@H](Cc1c[nH]c2ccccc12)NC(=O)[C@H](CC(C)C)NC(=O)[C@H](CCC(=O)O)NC(=O)[C@H](CC(C)C)NC(=O)[C@H](CC(=O)O)NC(=O)[C@H](CC(=O)O)NC(=O)[C@@H](NC(C)=O)[C@@H](C)O)C(=O)N[C@@H](Cc1cnc[nH]1)C(=O)N[C@H](C(=O)N[C@@H](CCSC)C(=O)N[C@@H](Cc1ccc(O)cc1)C(N)=O)[C@@H](C)CC)NC(=O)[C@H](Cc1c[nH]c2ccccc12)NC(=O)[C@H](CC(C)C)NC(=O)[C@H](CCC(=O)O)NC(=O)[C@H](CC(C)C)NC(=O)[C@H](CC(=O)O)NC(=O)[C@H](CC(=O)O)NC(=O)[C@@H](NC(C)=O)[C@H](C)O)C(=O)N[C@@H](CCSC)C(=O)N[C@@H](Cc1ccc(O)cc1)C(N)=O	6.3	0.37		Stable				Stable	Stable	association rate constant (ka) (Frizzled-7 [16]): 1.7 ×10⁷ /M/s
CC[C@H](C)[C@H](NC(=O)[C@H](Cc1cnc[nH]1)NC(=O)[C@H](CSSC[C@H](NC(=O)[C@H](Cc1c[nH]c2ccccc12)NC(=O)[C@H](Cc1cccc(Cl)c1)NC(=O)[C@H](CCC(=O)O)NC(=O)[C@H](CC(C)C)NC(=O)[C@H](CC(=O)O)NC(=O)[C@H](CC(=O)O)NC(=O)[C@@H](NC(C)=O)[C@H](C)O)C(=O)N[C@@H](Cc1cnc[nH]1)C(=O)N[C@H](C(=O)N[C@@H](CCSC)C(=O)N[C@@H](Cc1ccc(O)cc1)C(N)=O)[C@@H](C)CC)NC(=O)[C@H](Cc1c[nH]c2ccccc12)NC(=O)[C@H](CC(C)C)NC(=O)[C@H](CCC(=O)O)NC(=O)[C@H](Cc1cccc(Cl)c1)NC(=O)[C@H](CC(=O)O)NC(=O)[C@H](CC(=O)O)NC(=O)[C@@H](NC(C)=O)[C@H](C)O)C(=O)N[C@@H](CCSC)C(=O)N[C@@H](Cc1ccc(O)cc1)C(N)=O	0.54	0.039	53		Dose-dependent effect	Dose-dependent effect	139			Kd (Frizzled-1): 0.34 nM; Kd [17]: 0.32 nM; Kd (Frizzled-5): Not Active; Kd (Frizzled-8): Not Active; Kd (Frizzled-4): Not Active; Kd (Frizzled-9): Not Active; Kd (Frizzled-10): Not Active; inhibition (Frizzled-7 [18]): Active; inhibition (Homo sapiens [19]): Active
